Key:
Format in all cases: cell-based, E. coli
[1] = test system: strain β5366 (wild-type valS allele); assay: Zone of growth inhibition on Petri dishes, sensitivity to noncanonical amino acids; details: 24 h at 30° C.; for effect on growth (zone of inhibition): central well with 0.1 ml of 100 mM amino acid solution
[2] = test system: strain β8146 (mutated valS); assay: as above; details: 24 h at 30° C.
Method: (§1) The strains β5455, β8144 and β8146 are tested for their sensitivity to artificial amino acids which show steric resemblance to valine. The test is carried out on dishes containing glucose of MS mineral medium supplemented with thymidine. The cells are cultured in aerobic medium (glucose MS mineral medium, 0.3 mM thymidine) for 24 h at 30° C. and diluted to 1/250 in MS mineral medium. 0.5 ml of this cell suspension is plated out onto Petri dishes containing 25 ml of glucose MS mineral medium. A well is then hollowed out at the center of the dish and filled with 0.1 ml of an amino acid solution:
(§2) The dishes are then incubated for 24 h at 30° C. and the possible appearance on the dishes of a zone of inhibition around the well is recorded. The diameters of the limited zones of growth inhibition on Petri dishes are measured: […]

[3] = test system: strain β5455 (valS T222P); assay: as above; details: 24 h at 30° C.
Method: as §1, §2

[4] = test system: strain β8144 (mutated valS); assay: as above; details: 24 h at 30° C.
Method: as §1, §2

[5] = test system: twelve clones derived from strain β5366; assay: Growth factor test of clones from serial culture on plates with nutrient factors; details: glucose MS mineral medium plates
Method: The strain β5366 carrying the thyA:Val146 missense allele on the plasmid pTS1 is cultured in glucose MS mineral medium (2 g/l, Richaud et al., 1993) supplemented with 0.3 mM of thymidine, for 24 h at 30° C. in aerobiosis. The cells are then washed twice with deoxygenated MS mineral medium. A deoxygenated nutrient medium containing 10 ml of glucose MS mineral medium supplemented with 1.5 mM of cysteine is inoculated at 1/100 using the washed cells. The cells are then cultured in anaerobiosis for 24 h at 30° C., and a fresh tube containing 10 ml of deoxygenated cysteine glucose MS mineral medium is inoculated with a 1/100 dilution of the previous culture in the stationary phase. This procedure is repeated 26 times. At the end of this serial propagation, 12 clones from the liquid culture are isolated on plates containing thymidine (0.3 mM) glucose (2 g/l) MS mineral medium, in aerobiosis, and stored in suspension in the same liquid medium at −80° C. The twelve clones are tested on plates containing glucose MS mineral medium supplemented with nutrient factors. All these clones are shown to require thymine or thymidine as a growth factor, unless cysteine is present in the culture medium, at a concentration of at least 1.5 mM.

[6] = test system: strain β5366 (thyA:Val146); assay: Growth on cysteine diffusion gradient in Petri dishes
From the text: (§3) The plasmid pTS1 thus obtained propagates the thyA:Val146 allele, in which position 146 occupied in the wild-type thyA gene by the UGC codon of cysteine is occupied by the GUA codon of valine. The plasmid pTS1 is introduced by transformation, carried out according to the method of Sambrook et al. (1989), into the E. coli K12 ΔthyA strain, β1308 (Lemeignan et al., 1993), in which the chromosomal thymidylate synthase gene, thyA, is deleted. The transformed strain carrying the thyA:Val146 plasmid allele, β5366, is shown to be incapable of growing without thymine or thymidine being added to the culture medium, as is the strain β1308 from which it derives. […] Thus, it is as though the cysteine can infiltrate into the valyl-tRNA synthetase active site to form erroneous Cys-tRNAs^Val capable of correcting the substitution of the cysteine in the thymidylate synthase active site, with valine. The excess of valine would prevent the formation of these erroneous Cys-tRNAs^Val.

[7] = test system: strain β1308 (ΔthyA); assay: as above; details: 30° C., glucose MS mineral medium, central well 0.1 ml of 400 mM L-cysteine
From the text: as §3

[8] = test system: modified strain β8144; assay: Phenotypic suppression by metabolic precursors of cysteine (growth factor replacement)
From the text: (§4) The nutrient requirement for cysteine of the modified strains β8144 and β8146 is exploited in order to characterize metabolic precursors which may substitute for cysteine in the culture medium without giving rise to degradation by oxidation. […] However, the addition of none of these substances allows growth of the strain β1308 carrying a chromosomal deletion of the thyA gene of thymidylate synthase, thus excluding their contamination with traces of thymine or of thymidine.

[9] = test system: modified strain β8146; assay: as above
From the text: as §4

[10] = test system: strain β5274 (thyA:Ile146); assay: Phenotypic suppression by cysteine of thyA:Ile146 strain; details: 0.1 mM
Method: The plasmid pTS2 thus obtained propagates the thyA:Ile146 allele in which position 146 occupied in the wild-type thyA gene by the UGC codon of cysteine is occupied by the AUA codon of isoleucine. The strain which propagates the thyA:Ile146 plasmid allele, β5274, is shown to require the nutritional supply of thymine, of thymidine or of cysteine in excess, as was the strain β5366. The phenotypic suppression of the strain β5274 by the cysteine is abolished with 0.1 mM of isoleucine, as was that of the strain β5366 with valine. Thus, it is as though the isoleucyl-tRNA synthetase is capable of forming erroneous Cys-tRNAs^Ile in the presence of an excess of cysteine, and that this erroneous formation is prevented by the presence of an excess of isoleucine.

[11] = central well with 0.1 ml of 100 mM amino acid solution
[12] = central well with 0.1 ml of 50 mM amino acid solution

NC[C@H](N)C(=O)O [L-2,3-diaminopropionate]
effect on growth (zone of inhibition) [1]: no effect
diameter of zone of growth inhibition [2, 11]: 1.9 cm
diameter of zone of growth inhibition [3, 11]: 2.3 cm
diameter of zone of growth inhibition [4, 11]: 2.7 cm

CCC[C@H](N)C(=O)O [L-2-aminovalerate]
effect on growth (zone of inhibition) [1]: no effect
diameter of zone of growth inhibition [2, 11]: 6.7 cm
diameter of zone of growth inhibition [3, 11]: 2.1 cm
diameter of zone of growth inhibition [4, 11]: 1.5 cm

CC(S)[C@H](N)C(=O)O (stereo partly drawn) [L-3-thiol-2-aminobutyrate]
diameter of zone of growth inhibition [1, 12]: 2.0 cm
diameter of zone of growth inhibition [2, 12]: 4.0 cm
diameter of zone of growth inhibition [3, 12]: 4.6 cm
diameter of zone of growth inhibition [4, 12]: 4.0 cm

N[C@@H](CS)C(=O)O [L-cysteine]
cysteine concentration that replaces thymine or thymidine as growth factor [5]: at least 1.5 mM
growth on cysteine diffusion gradient ([6]; 30° C., glucose MS mineral medium, central well 0.1 ml of 400 mM L-cysteine): marginal growth
growth on cysteine diffusion gradient [7]: no detectable growth

O=C(O)[C@@H]1CSCN1 [L-thiazolidine-4-carboxylic acid]
replacement of cysteine as growth factor instead of thymidine or thymine ([8]; 2 mM in culture medium): capable of replacing cysteine as a growth factor
replacement of cysteine as growth factor instead of thymidine or thymine ([9]; 2 mM in culture medium): capable of replacing cysteine as a growth factor

NC(=O)SC[C@H](N)C(=O)O [S-carbamyl-L-cysteine]
replacement of cysteine as growth factor instead of thymidine or thymine ([8]; 3 mM in culture medium): capable of replacing cysteine as a growth factor
replacement of cysteine as growth factor instead of thymidine or thymine ([9]; 3 mM in culture medium): capable of replacing cysteine as a growth factor

CSC[C@H](N)C(=O)O [S-methyl-L-cysteine]
replacement of cysteine as growth factor instead of thymidine or thymine ([8]; 3 mM in culture medium): capable of replacing cysteine as a growth factor
replacement of cysteine as growth factor instead of thymidine or thymine ([9]; 3 mM in culture medium): capable of replacing cysteine as a growth factor

CC[C@H](C)[C@H](N)C(=O)O [isoleucine]
effect on phenotypic suppression by cysteine [10]: abolished

CC(C)[C@H](N)C(=O)O [valine]
effect on growth on a cysteine gradient ([6]; 0.1 mM added to the medium of the Petri dishes): abolishes the growth

L-2-aminobutyrate
effect on growth (zone of inhibition) [1]: no effect
diameter of zone of growth inhibition [2, 11]: 6.7 cm
diameter of zone of growth inhibition [3, 11]: 5.2 cm
diameter of zone of growth inhibition [4, 11]: 5.7 cm

— patent US7736899B1, “Cells and method for producing proteins comprising an unconventional amino acid” (priority 1998, dated 2010)
